From ChEMBL document CHEMBL2074177, “Antifolate resistance mediated by the multidrug resistance proteins MRP1 and MRP2” (Cancer Res, 1999)

Biological target: ATP-binding cassette sub-family C member 2 (Homo sapiens, UniProt Q92887)
Experiment: TP_TRANSPORTER: uptake in membrane vesicle from MRP2-expressing 2008 cells
Assay type: functional, cell membranes

Chain of ATP-binding cassette sub-family C member 2 (Q92887 whole entry): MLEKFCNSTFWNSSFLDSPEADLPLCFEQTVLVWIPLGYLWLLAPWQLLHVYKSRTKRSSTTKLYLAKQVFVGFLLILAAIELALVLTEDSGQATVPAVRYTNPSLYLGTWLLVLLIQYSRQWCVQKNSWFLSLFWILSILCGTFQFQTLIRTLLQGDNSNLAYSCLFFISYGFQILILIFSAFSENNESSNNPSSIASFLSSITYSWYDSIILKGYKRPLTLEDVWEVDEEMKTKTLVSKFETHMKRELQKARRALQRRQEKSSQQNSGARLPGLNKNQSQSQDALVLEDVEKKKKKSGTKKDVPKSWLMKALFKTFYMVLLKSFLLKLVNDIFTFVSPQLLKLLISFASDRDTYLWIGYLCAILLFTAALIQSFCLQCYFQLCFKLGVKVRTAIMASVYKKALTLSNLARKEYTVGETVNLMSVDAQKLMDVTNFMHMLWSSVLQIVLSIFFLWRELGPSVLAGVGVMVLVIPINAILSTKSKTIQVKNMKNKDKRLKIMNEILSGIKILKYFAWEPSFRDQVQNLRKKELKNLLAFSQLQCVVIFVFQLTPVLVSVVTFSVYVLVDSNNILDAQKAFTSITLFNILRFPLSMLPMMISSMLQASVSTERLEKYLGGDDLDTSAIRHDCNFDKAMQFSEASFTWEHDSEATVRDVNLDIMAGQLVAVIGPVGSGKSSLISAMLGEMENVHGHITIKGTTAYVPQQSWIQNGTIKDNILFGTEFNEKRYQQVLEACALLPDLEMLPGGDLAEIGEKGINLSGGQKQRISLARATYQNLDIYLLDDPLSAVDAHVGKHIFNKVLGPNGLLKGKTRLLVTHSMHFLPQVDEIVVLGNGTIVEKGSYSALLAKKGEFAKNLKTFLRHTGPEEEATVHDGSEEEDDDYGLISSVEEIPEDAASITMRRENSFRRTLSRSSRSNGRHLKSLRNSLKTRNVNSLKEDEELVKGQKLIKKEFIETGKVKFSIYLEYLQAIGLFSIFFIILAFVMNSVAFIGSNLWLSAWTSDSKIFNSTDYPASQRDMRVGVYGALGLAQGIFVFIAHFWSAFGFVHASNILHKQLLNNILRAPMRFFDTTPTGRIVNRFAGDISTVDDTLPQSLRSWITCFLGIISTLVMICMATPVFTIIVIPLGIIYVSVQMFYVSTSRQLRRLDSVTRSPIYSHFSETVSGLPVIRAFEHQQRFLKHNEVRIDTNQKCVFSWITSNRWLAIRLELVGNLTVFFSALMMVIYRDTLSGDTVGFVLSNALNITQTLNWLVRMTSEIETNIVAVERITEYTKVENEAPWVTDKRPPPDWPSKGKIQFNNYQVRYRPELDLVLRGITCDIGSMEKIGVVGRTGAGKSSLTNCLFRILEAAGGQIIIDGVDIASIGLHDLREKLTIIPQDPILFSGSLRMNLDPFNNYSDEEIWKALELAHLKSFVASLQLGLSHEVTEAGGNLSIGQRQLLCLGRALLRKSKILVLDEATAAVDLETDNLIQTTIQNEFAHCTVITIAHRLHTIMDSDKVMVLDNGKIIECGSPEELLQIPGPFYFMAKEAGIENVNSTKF

Activity: substrate [+]
Structure (SMILES): CN(Cc1cnc2nc(N)nc(N)c2n1)c1ccc(C(=O)N[C@@H](CCC(=O)O)C(=O)O)cc1 [METHOTREXATE]
